According to ChEMBL document CHEMBL1201862, “PubChem BioAssay data set” (2004):
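Briefly, cells in 96-well plates were exposed to five compound concentrations for 48 h, and endpoints were estimated by linear interpolation. GI50: concentration for 50% inhibition of growth.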 The source made the active and inactive calls. Rule as the data show it: active = GI50 up to about 1.1 µM and inactive = higher.

Columns and labels:
Experiment in all cases: DTP human tumour cell line panel, 48 h
SN12C = system: SN12C
XF498 = system: XF498
SNB-75 = system: SNB-75
SK-MEL-28 = system: SK-MEL-28
UACC-62 = system: UACC-62
SW-620 = system: SW-620
Malme-3M = system: Malme-3M
SF-268 = system: SF-268
HT-29 = system: HT-29
SNB-19 = system: SNB-19
MOLT-4 = system: MOLT-4
KM12 = system: KM12
COLO 205 = system: COLO 205
CCRF-CEM = system: CCRF-CEM
EKVX = system: EKVX
TK-10 = system: TK-10
A549 = system: A549
A498 = system: A498
RXF 393 = system: RXF 393
DLD-1 = system: DLD-1
SK-MEL-2 = system: SK-MEL-2
OVCAR-3 = system: OVCAR-3
IGROV-1 = system: IGROV-1
KM-20L2 = system: KM-20L2
DMS-273 = system: DMS-273
M14 = system: M14
LOX IMVI = system: LOX IMVI
SK-OV-3 = system: SK-OV-3
NCI-H226 = system: NCI-H226
HOP-62 = system: HOP-62
NCI-H23 = system: NCI-H23
SF-539 = system: SF-539
HCC 2998 = system: HCC 2998
NCI-H460 = system: NCI-H460
SF-295 = system: SF-295
UO-31 = system: UO-31
M19-MEL = system: M19-MEL
OVCAR-8 = system: OVCAR-8
LXFL 529 = system: LXFL 529
SNB-78 = system: SNB-78
UACC-257 = system: UACC-257
RPMI-8226 = system: RPMI-8226
HCT-15 = system: HCT-15
HL-60 = system: HL-60
DMS-114 = system: DMS-114
CAKI-1 = system: CAKI-1
SK-MEL-5 = system: SK-MEL-5
RXF 631 = system: RXF 631
K562 = system: K562
786-0 = system: 786-0
NCI-H522 = system: NCI-H522
U-251 = system: U-251

Measured: GI50

O=C(O)c1ccc(C2C3C=CC(C3)C2[N+](=O)[O-])cc1 (configuration not stated)
> 100 µM: HCT-15
inactive: SN12C > 100 µM | XF498 > 100 µM | SNB-75 91.2 µM | SK-MEL-28 > 100 µM | UACC-62 > 100 µM | SW-620 > 100 µM | Malme-3M > 100 µM | SF-268 > 100 µM | HT-29 > 100 µM | SNB-19 > 100 µM | MOLT-4 > 100 µM | KM12 > 100 µM | COLO 205 > 100 µM | CCRF-CEM > 100 µM | EKVX > 100 µM | TK-10 > 100 µM | A549 > 100 µM | A498 > 100 µM | RXF 393 > 100 µM | DLD-1 > 100 µM | SK-MEL-2 > 100 µM | OVCAR-3 > 100 µM | IGROV-1 > 100 µM | KM-20L2 > 100 µM | DMS-273 > 100 µM | M14 > 100 µM | LOX IMVI > 100 µM | SK-OV-3 > 100 µM | NCI-H226 > 100 µM | HOP-62 > 100 µM | NCI-H23 > 100 µM | SF-539 > 100 µM | HCC 2998 > 100 µM | NCI-H460 > 100 µM | SF-295 > 100 µM | UO-31 > 100 µM | M19-MEL > 100 µM | OVCAR-8 > 100 µM | LXFL 529 > 100 µM | SNB-78 > 100 µM | UACC-257 > 100 µM | RPMI-8226 > 100 µM | HL-60 > 100 µM | DMS-114 > 100 µM | CAKI-1 > 100 µM | SK-MEL-5 > 100 µM | RXF 631 > 100 µM | K562 > 100 µM | 786-0 > 100 µM | NCI-H522 > 100 µM | U-251 > 100 µM
